One data set concerns the target T1, human recombinant sEH (Homo sapiens, UniProt P34913).
T1 construct: purchased Cayman Chemical 10011671
T1 sequence (P34913 1-555): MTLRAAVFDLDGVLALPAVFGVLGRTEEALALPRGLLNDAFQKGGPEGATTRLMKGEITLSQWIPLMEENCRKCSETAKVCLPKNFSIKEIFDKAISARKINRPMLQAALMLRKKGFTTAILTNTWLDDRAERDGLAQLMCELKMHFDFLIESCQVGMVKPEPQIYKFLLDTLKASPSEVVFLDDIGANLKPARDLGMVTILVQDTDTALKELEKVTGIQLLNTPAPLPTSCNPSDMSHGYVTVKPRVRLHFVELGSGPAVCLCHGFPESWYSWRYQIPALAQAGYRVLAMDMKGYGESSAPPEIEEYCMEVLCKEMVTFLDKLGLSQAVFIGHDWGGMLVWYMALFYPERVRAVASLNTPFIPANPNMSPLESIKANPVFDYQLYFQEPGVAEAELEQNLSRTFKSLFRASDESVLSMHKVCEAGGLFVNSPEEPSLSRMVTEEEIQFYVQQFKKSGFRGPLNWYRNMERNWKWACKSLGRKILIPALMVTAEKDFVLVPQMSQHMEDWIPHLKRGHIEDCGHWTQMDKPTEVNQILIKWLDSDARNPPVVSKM
Put plainly: Fluorescence-based sEH activity assay (PHOME substrate), human enzyme. The class given is biochemical. The following applies: for IC50: dose-dependent assay, read-out: Human sEH Inhibition IC50. The method, then:
A fluorescence-based sEH activity assay provided a convenient method for screening human epoxide hydrolase inhibitors. The assay utilized (3-Phenyl-oxiranyl)-acetic acid cyano-(6-methoxy-naphthalen-2-yl)-methyl ester (PHOME) as a substrate. […] The inhibitory function of the compounds on sEH activity was tested as detailed in the product manual from Cayman Chemical. Briefly, 3 mL sEH assay buffer (10×) was diluted with 27 mL HPLC-grade water. This final assay buffer, 25 mM bis-tris (pH 7.0), was used in the assay and for the dilution of the soluble epoxide hydrolase (sEH) enzyme. Amounts of 12 μL each of human and mouse recombinant sEH were thawed on ice. Prior to assaying, 588 μL cold assay buffer was added directly to the enzyme vial. An amount of 190 μL assay buffer and 5 μL solvent (40% DMSO in assay buffer) were added to the background wells. In the 100% initial activity wells, 185 μL assay buffer, 5 μL sEH, and 5 μL solvent were added. In inhibitor wells, 185 μL assay buffer, 5 μL solution of the synthesized compounds, and 5 μL of recombinant enzyme solution were added.
Average fluorescence (AF) of the background wells and 100% initial activity in the wells and of each of the inhibitors were determined. The background AF was subtracted from the 100% initial activity and inhibitor AFs. The % sEH activity is calculated as (inhbitited AF/% 100 initial activity) × 100.
Multiple concentrations of the inhibitors were tested followed by plotting of the percent activity as a function of inhibitor concentration to determine the IC50 values.

Another data set relates to Caco-2 cells. Nature of the data set: Caco-2 permeability. In kind it is in vitro ADME. On the procedure:
Caco-2 cells were cultured in 75 cm^2 flasks to 80–90% confluence according to the ATCC and Millipore recommendations in a humidified atmosphere at 37 °C and 5% CO2. Cells were detached with a trypsin/EDTA solution, resuspended in the complete medium containing DMEM high glucose ([…]) with L-glutamine (4 mM) supplemented with 10% heat-inactivated Fetal Bovine Serum, 1% non-essential amino acids, and 730 nM puromycin, and seeded at a density of 5 × 10^5 cells in a 75 cm^2 flask. After 5 days, cells were trypsinized and resuspended in the complete medium to a final concentration of 600 × 10^3 cells/mL. Of the cell suspension, 400 µL was added to each well of an HTS 24-Multiwell Insert System and 25 mL of prewarmed complete medium was added to the feeder tray. Caco-2 cells were incubated in the Multiwell Insert System for 6–10 days before the transport experiments. The medium in the filter plate and feeder tray was refreshed every other day. Prior to the transport experiment, the integrity of the monolayer was verified by measuring the transepithelial electrical resistance (TEER) for every well using a Millicell-ERS system ohm meter. The final TEER values were within the range of 150–600 Ω × cm^2, as required for the assay conditions. The 24-well insert plate was removed from its feeder plate and placed in a new sterile 24-well transport analysis plate. The inserts were washed with PBS after medium aspiration. Ketoprofen, atenolol, digoxin, and quinidine were used as reference compounds.
To determine transport rates in the basolateral (B)-to-apical (A) direction, 1000 μL of the test compound solutions was added into the wells of the transport analysis plate, and the wells in the filter plate were filled with 300 μL of buffer (apical compartment).
The effect of the inhibitor on the Pgp-mediated transport of the tested compounds was assessed by determining the bidirectional transport in the presence or absence of verapamil. The Caco-2 cells were preincubated for 30 min at 37 °C with 100 μM of verapamil in both apical and basolateral compartments. After removal of the preincubation medium, the test compounds with verapamil (100 μM) in transport buffer were added in donor wells, while the receiver wells were filled with the appropriate volume of transport buffer with 100 μM of verapamil. The final amounts of test and reference compounds were 10 μM each. The plates were incubated for 90 min at 37 °C under continuous shaking at 100 rpm. Aliquots of 75 μL were taken from the donor and receiver compartments for LC–MS/MS analysis. All samples were mixed with 2 volumes of acetonitrile followed by protein sedimentation by centrifuging at 10,000 rpm for 10 min. Supernatants were analyzed using the HPLC system coupled with a tandem mass spectrometer.

On to `O=C(NC12CC3CC(CC(C3)C1)C2)NS(=O)(=O)c1ccc(OC(F)(F)F)cc1` [Compound 4f], for which, at human recombinant sEH, the “Human sEH % Inhibition” value is on record as 96.05% and the IC50 amounted to 1.69 nM. Further, in the data set with Caco-2 cells, the “Pgp substrate status from Caco-2 efflux ratio” value is “not Pgp substrates” and the “brain penetrability judged from Caco-2 permeability” value is recorded as “brain penetrable”.
As to `O=C(NC12CC3CC(CC(C3)C1)C2)NS(=O)(=O)c1ccc2ccccc2c1` [Compound 4l], at human recombinant sEH, the “Human sEH % Inhibition” value worked out at 96.79% and the IC50 was 1.21 nM. The “brain penetrability judged from Caco-2 permeability” value in the data set on Caco-2 cells is “brain penetrable”.

The term IC50 denotes the concentration that inhibits the measured activity by half.
